Assay results reported in a melting point compilation (Tetko et al.; mined from patent text by program, amines drawn as free bases though some values may be those of a salt).

Work on COc1ccc(C=Cc2nc3c(c(=O)n(C)c(=O)n3C)n2C)cc1OC yielded a melting point of 230 to 232 °C. Work on CN(C)C(=O)Nc1cccc(C(=O)c2ccccc2)c1 yielded a melting point of 104 to 105 °C. With CCOC(=O)C(Cc1ccccc1[N+](=O)[O-])(NC=O)C(=O)OCC the melting point was 129 to 132 °C. Work on COc1ccc(CCOc2ccnc(-c3cccc(C(=O)O)c3)c2)cc1OC yielded a melting point of 194 to 195 °C. With CN1CCC(c2c[nH]c3ccc(NC(=O)c4ccc(F)cc4Cl)cc23)CC1 the melting point was 159 to 162 °C. In the case of O=C(O)c1ccc(S(=O)(=O)Cc2c(O[C@H](Cn3ccnc3)c3ccccc3)ccc3c2CCCC3=O)cc1, the melting point is reported as 250 °C. CC(CC(=O)O)CC(=O)NCCc1ccccc1 (centres undefined) showed a melting point of 78 to 80 °C. Work on COc1ccc(C2=NN(C3CCCCCC3)C(=O)[C@H]3CC=CC[C@@H]23)cc1OCC1CC1 (relative stereo) yielded a melting point of 102 to 103 °C. CCN(CC)c1ccc(C2(N(c3ccccc3)c3ccccc3)OC(=O)c3nccnc32)cc1 (centres undefined) gave a melting point of 140 to 143 °C. With COc1ccc([C@@H]2CCCC[C@@H]2[N+](=O)[O-])cc1OC (racemic) the melting point was 84 to 86.5 °C. In the case of Cc1cccc(C)c1NC(=O)Nc1ccc(CC(=O)NC(CC(C)C)c2ncc(CCC(=O)O)s2)cc1 (centres undefined), the melting point is reported as 125 to 127 °C. COC1=NS(=O)(=O)N(C)C(OCCCCc2ccccc2)=N1 gave a melting point of 74 to 78 °C. With Nc1ccccc1C(=O)c1ccc(OCc2ccccc2)cc1 the melting point was 99 to 101 °C. Compound CC1CC(=O)NN=C1c1ccc2c(c1)NC(=O)C(C)O2 (centres undefined) has a melting point of 271 to 272 °C. Compound CC[C@H](C1CC1)n1cc(Cl)nc(N2CCc3cc(OC)cc(Br)c32)c1=O has a melting point of 138 to 140 °C. O=C(O)C1CCc2[nH]c3ccc(Cl)c(Cl)c3c2C1 (centres undefined) gave a melting point of 244 to 245 °C. Compound CC1CCC2C3CCC4CC(O)CCC4(C)C3C(N(C)C)CC12C (centres undefined) has a melting point of 150 to 156 °C. COc1cc(-c2cc(C3CCOC3)no2)cc2oc(=O)c(C)c(C)c12 (centres undefined) showed a melting point of 122 °C. In the case of Cc1cc(Cl)ccc1N1CN(C)CN(C)C1=S, the melting point is reported as 103 to 105 °C. O=C(c1cccc2c1NCC2)N1CCN(c2cccc(C(F)(F)F)c2)CC1 gave a melting point of 115 to 118 °C. In the case of CC(C)(C)OC(=O)N[C@@H](Cc1ccc(NC(=O)OCC2c3ccccc3-c3ccccc32)cc1)C(=O)OCc1ccccc1, the melting point is reported as 186 to 187 °C. OC(Nc1cccc(C(F)(F)F)c1)c1cccnc1 (centres undefined) showed a melting point of 102 °C. In the case of CCCCCCCCCCN(O)C(=O)NC, the melting point is reported as 96 to 97 °C. Work on Cn1ncnc1COc1nn2c(-c3ccccc3F)nncc2c1-c1cc(F)ccc1F yielded a melting point of 164 to 165 °C. Work on O=C(O)COc1c(-c2ccccc2)c(=O)[nH]c2cc(Cl)ccc12 yielded a melting point of 269 to 272 °C. Compound CCN(CC)c1ccc(/C=C/C(=O)CC(=O)/C=C/c2ccc(O)c(OC)c2)c(O)c1 has a melting point of 89 to 92 °C. In the case of NNc1ccnc2c(NC(=O)c3c(Cl)cccc3Cl)cc(C(F)(F)F)cc12, the melting point is reported as 228 to 232 °C. Cc1nc(OCCCc2cc(OC(C)C)nn2Cc2ccc(Cl)cc2Cl)c(CC#N)s1 showed a melting point of 92 to 93 °C. Work on COc1ccc(C(O)CN2CCNC2=O)cc1OC (centres undefined) yielded a melting point of 166 °C. In the case of O=C1N(O)CC12CCOc1cc(Cl)c(Cl)cc12 (centres undefined), the melting point is reported as 157 to 158 °C. O=C(C(=O)c1cccc(F)c1)c1cccc(F)c1 showed a melting point of 104 to 105 °C. Work on Nc1ccc(Nc2cc3c(cc2Nc2ccc(N)cc2)C(=O)NC3=O)cc1 yielded a melting point of 154 to 157 °C. With CS(=O)(=O)Nc1cccc(Nc2nc(OC3CCOC3)c3nc[nH]c3n2)c1 (centres undefined) the melting point was 255 to 257 °C. CC(=O)NC(=O)CCCCBr showed a melting point of 88 to 90 °C. Work on O=C(c1ccc([N+](=O)[O-])cc1)N1Cc2ccccc2C(c2ccccc2Cl)c2ccccc21 (centres undefined) yielded a melting point of 178 to 181 °C. Cc1c(Sc2ccc(Cl)cc2)nn(-c2ccc3c(c2)OCO3)c(=O)c1C#N showed a melting point of 166 to 168 °C. Compound CCOC(=O)C(=NOCCCl)c1csc(N)n1 has a melting point of 126 to 128 °C. Cc1ccc(C2=NC[C@@H](O)[C@H](c3ccccc3)O2)cc1 (racemic) gave a melting point of 168 °C. Work on CCS(=O)(=O)NCc1cccc(-c2nc(=O)c3ccccc3s2)n1 yielded a melting point of 170 to 171 °C. Work on COc1ccc(CN2C(=O)C3(COc4cc(F)c(C#N)cc43)c3ccccc32)cc1 (centres undefined) yielded a melting point of 142 to 143 °C. For O=C(c1ccccc1)N1CCc2[nH]c3c(cnc4cc(Cl)ccc43)c2C1, the melting point was 275 °C. Oc1ccc(C=C(Cl)Cl)cc1 gave a melting point of 90 to 91 °C. NCCCCCCC(=O)Nc1cccc(C(=O)NCCC(=O)O)c1 showed a melting point of 236 °C. Compound Cc1noc(NS(=O)(=O)c2ccsc2C(=O)Nc2ccc(C(C)(C)C)cc2)c1Br has a melting point of 76 to 86 °C. For CC1(C)OC(=O)N(C(=O)/C=C/c2ccccc2)[C@@H]1c1ccccc1, the melting point was 149 °C. COc1cc(NC(=O)N(c2ccc(N(C)C)cc2)C2CCCCCC2)c(OC(=O)[C@H](C)NC(=O)OCc2ccccc2)c(C(C)(C)C)c1 gave a melting point of 126 °C. In the case of O=c1[nH]c2ccccc2cc1CN1CC=C(CCc2ccccc2)CC1, the melting point is reported as 177 to 179 °C. O=Cc1cn(-c2cccnc2)c2ccccc12 gave a melting point of 148 to 150 °C. In the case of O=C(c1cccnc1)N1CCC(c2ccc(Cl)cc2)=N1, the melting point is reported as 125 to 126 °C. For CCCCSc1c[nH]nc1C1CN2CCC1CC2 (centres undefined), the melting point was 162 to 164 °C. Work on COc1cc(C(=O)c2ccccc2)c(O)c2c1C(C)(C)CCC2(C)C yielded a melting point of 85 °C. Work on COc1cc(C(C)=O)cc(OC)c1O[Si](C)(C)C(C)(C)C yielded a melting point of 90 to 92 °C. Work on CCCCOc1ccc(S(=O)(=O)C2(C(=O)O)CCN(CC)CC2)cc1 yielded a melting point of 162 °C. O=CC=C(c1cccc(F)c1)c1cccc(F)c1 gave a melting point of 51 to 53 °C. N#Cc1cccc(Cc2c(-c3ccc(OC(F)F)c(OC4CC4)c3)[nH]c3cn[nH]c(=O)c23)c1 showed a melting point of 130 to 135 °C. CCCCCCCCCCCCCCCCS[C@H]1CCCO[C@H]1CO (relative stereo) showed a melting point of 52 to 53 °C. Compound COc1cc(N)c(C(N)=O)cc1C(=O)N[C@H]1CCN(Cc2ccc(F)cc2)C[C@H]1OC (relative stereo) has a melting point of 244 °C. For COc1cc(C)cc(C(=O)NC(C)P(=O)(O)O)c1C1=CC(=O)c2c(O)cccc2C1=O (centres undefined), the melting point was > 300 °C. Compound Cc1cc(C2=NOC(c3cc(C(F)(F)F)cc(C(F)(F)F)c3)(C(F)(F)F)C2)ccc1Br (centres undefined) has a melting point of 108 to 110 °C. In the case of CCCCOC(=O)c1ccc(N2CCN(CCCS(=O)(=O)O)CC2)cc1, the melting point is reported as 232 to 234 °C. For c1csc(-c2ccc(-c3cn([C@H]4CN5CCC4CC5)nn3)cc2)c1, the melting point was 214 °C. In the case of CC(=O)OC1CSC(Oc2cccc(-c3c(C)n[nH]c3C)c2)C(OC(C)=O)C1OC(C)=O (centres undefined), the melting point is reported as 195 °C. Compound CCCCCCCCN[C@@H]1Cc2cc(OC)c(OC)cc2[C@H]1O (relative stereo) has a melting point of 133 to 135 °C. Nc1ccc2c(-c3ccccc3)c([N+](=O)[O-])oc2c1 showed a melting point of 212 to 214 °C. CC12CCC(=O)C=C1CCC1C2CCC2(C)C1CCC2(O)C(N)=O (centres undefined) gave a melting point of 233 to 234 °C. COc1ccc(CN2C(CN3CCOCC3)=Cc3ccsc3S2(=O)=O)cc1 gave a melting point of 112 to 114 °C. CC(C(=O)Oc1cc(=O)n(-c2ccccc2)c2ncccc12)c1ccccc1 (centres undefined) gave a melting point of 166 to 168 °C. In the case of CN(Cc1ccc(NC(=O)C2=Cc3cc(-c4ccc(N5CCOCC5)cc4)ccc3N(C=O)CC2)cc1)C1CCOCC1, the melting point is reported as 234 to 243 °C. In the case of CCOCc1nc(C(=O)OCC)c(C(=O)OCC)[nH]1, the melting point is reported as 60 to 61 °C. Work on CC(C)(C)C(Nc1c(Nc2cccnc2)c(=O)c1=O)C(Oc1ccccc1)C(N)=O (centres undefined) yielded a melting point of 227 to 228 °C. In the case of COc1cc2cc3ncc(C#N)c(Nc4ccc(Oc5ccccc5)cc4)c3cc2cc1OC, the melting point is reported as > 265 °C. With CS(=O)(=O)Nc1ccc(N2CCN(c3cc(N)ccn3)CC2)cc1 the melting point was 225 to 227 °C. For CS(=O)(=O)Nc1ccc([N+](=O)[O-])cn1, the melting point was 217 to 220 °C. With CCN(c1ccc(C(=O)Nc2cn3cc(Cl)ccc3n2)cc1)S(C)(=O)=O the melting point was 245 to 247 °C. CC(C)(C)OC(=O)Nc1nc(/C(=N/OC(c2ccccc2)(c2ccccc2)c2ccccc2)C(=O)O)cs1 showed a melting point of 157 to 158 °C. CN(C)c1ccc(-c2cc(N(C(=O)OC(C)(C)C)C(=O)OC(C)(C)C)nn2C(=O)OC(C)(C)C)cc1 showed a melting point of 64 to 65 °C. With CCC(CC)N1C(=O)CCc2c1cc(C)nc2Nc1c(C)cc(C)cc1C the melting point was 44 to 46 °C. Work on NNC(=O)Cc1cccc(OCCN2CCC(Cc3ccccc3)CC2)c1 yielded a melting point of 89 to 91 °C. CCOC(=O)CON(CC)C(=S)Nc1ccc(Cl)cc1C gave a melting point of 69 to 71 °C. C=C1COc2c(N3CCN(C)CC3)c(F)cc3c(=O)c(C(=O)O)cn1c23 showed a melting point of 200 to 201 °C. With C=CCc1cc2c(C)c(Br)c(=O)oc2c(C)c1O the melting point was 189 to 190 °C. CCOP(=O)(Cc1ccc(NC(=O)/C=C/c2cnn(Cc3ccccc3)c2-c2ccc(F)cc2)cc1)OCC gave a melting point of 207 to 208 °C. Compound CC(=O)NCCC1CCc2ccn3nccc3c21 (centres undefined) has a melting point of 100 to 101 °C. For CNC(=O)c1c(NC(=O)CCl)c(OC)c(C(=O)NC)c(NC(=O)CCl)c1OC, the melting point was 146 to 148 °C. Cc1cc(C(=O)CCCCCCCCC(=O)c2cc(C)c(O)c(C(C)(C)C)c2)cc(C(C)(C)C)c1O showed a melting point of 165 to 168 °C. With CN1C(=O)N(c2ccccc2)S[N+]1(C)[O-] (centres undefined) the melting point was 77 to 79 °C. Compound CCOC(=O)c1c(-c2ccc(F)cc2)cc(-c2ccccc2Cc2ccccc2)nc1C(C)C has a melting point of 94 to 97 °C. In the case of O=C(c1cc([N+](=O)[O-])cc(C(F)(F)F)c1)N1CCC1, the melting point is reported as 91 °C. O=C1NCC(c2cn3c4c(cccc24)CCC3)=C1c1c[nH]c2ccccc12 gave a melting point of 260 to 262 °C. For CC(=O)Nc1cc(C(F)(F)F)ccc1S(=O)CC#N (centres undefined), the melting point was 149 to 151 °C. In the case of CC(=O)Nc1c(-c2cccc(-n3c(N)nc4ccccc43)c2)cnn1C, the melting point is reported as 135 to 137 °C. In the case of N#Cc1cc(-c2c[nH]nc2-c2ccc(F)cc2)ccn1, the melting point is reported as 209 °C. Cn1c(C(F)(F)F)nn(Cc2c(Cl)ccc(C(=O)O)c2Cl)c1=O gave a melting point of 207 °C. Cc1ccccc1C(=O)Nc1ccc(C(=O)O)cn1 showed a melting point of 235 to 238 °C. CC=C1C(=O)c2ccccc2OC1c1ccccc1 (centres undefined) showed a melting point of 47 to 49 °C. Compound COc1nc2cc(Cl)c(Cl)c(-c3nnnn3CCCO)c2nc1OC has a melting point of 188 to 189 °C. Cc1cc2c(cc1Br)nc1n2CCC1 showed a melting point of 167 to 170 °C. In the case of O=S(=O)(c1ccc(Oc2cncc(Br)c2)cc1)N1CCCC1, the melting point is reported as 148 °C. For CCCc1sc2nc(CCl)c(C(=O)OCC)c(-c3ccc(Cl)cc3)c2c1C, the melting point was 95 to 96 °C.
